Where no end group is shown, it is not given here.
What was measured:
indicated HLA alleles [1] = assay: Affinity of mutant EGFR neopeptides for indicated HLA alleles; type: binding, human
indicated HLA alleles [2] = assay: Stability of mutant EGFR neopeptides with the HLA alleles; type: binding, human
Method: (§1) Multiple peptides containing neoepitopes in the table below were either expressed or loaded onto antigen presenting cells. Mass spectrometry was then performed and the affinity of the neoepitopes for indicated HLA alleles were determined, and the stability of the neoepitopes with the HLA alleles were determined.

indicated HLA alleles [3] = assay: Stability of GATA3 neoORF neoepitopes with the HLA alleles (Example 9, Table 4); type: binding, human
Method: (§2) Multiple peptides containing the neoepitopes in Table 4 below were expressed or loaded onto antigen presenting cells (APCs). Mass spectrometry was then performed and the affinity of the neoepitopes for the indicated HLA alleles and stability of the neoepitopes with the HLA alleles was determined.

indicated HLA alleles [4] = target: indicated HLA alleles (Homo sapiens, UniProt P01889); assay: Affinity of GATA3 neoORF neoepitopes for the indicated HLA alleles (Example 9, Table 4); type: binding
Method: as §2

indicated HLA alleles [5] = assay: Stability of mutant BTK neopeptides with the HLA alleles; type: binding, human
Method: as §1

HLA-A02:01 = HLA-A02:01 (Homo sapiens, UniProt P04439, D140Y/D185E/D98H/E176V/E277Q/G131W/G231S/I119V/I121R/I166T/I218V/L300P/L318F/N151K/N90K/P208A/P217A/Q86G/Q94H/R138H/R169H/T345S); assay: Stability measurements, pMHC-I dissociation with 125I light chain (Example 20); type: binding
Method: (§3) To measure the binding stability of peptides to Class I MHC, synthetic genes encoding biotinylated MHC-I heavy and light chains are expressed in E. coli and purified from inclusion bodies using standard methods. […] These reactions were carried out in streptavidin coated microplates to bind the biotinylated MHC-I heavy chains to the surface and allow measurement of radiolabeled light chain to monitor complex formation. Dissociation was initiated by addition of higher concentrations of unlabeled light-chain and incubation at 37° C. Stability was defined as the length of time in hours it takes for half of the complexes to dissociate, as measured by scintillation counts. Duplicate measurements were performed. The average of the two measurements was taken as the stability.

HLA-B08:01 = HLA-B08:01 (Homo sapiens, UniProt P01889, A93T/A95T/D138N/E176V/E187T/K202T/Q94N/R180D/S35A/V36M/Y33D/Y91F); assay: as above; type: binding
Method: as §3

indicated HLA alleles [6] = assay: Affinity of GATA3 neoORF neoepitopes for the indicated HLA alleles (Example 9, Table 4); type: binding, human; conditions: Allele A02.01; read-out: Observed MHC affinity
Method: as §2

indicated HLA alleles [7] = assay: Affinity of mutant BTK neopeptides for indicated HLA alleles; type: binding, human; conditions: BTK, C481S; HLA A24.02
Method: as §1

[8] = for Solubility in […] SS in D5W w/ 4% DMSO: […] sodium succinate in D5W

For `CC[C@H](C)[C@H](NC(=O)[C@H](CC(C)C)NC(=O)[C@H](CCC(N)=O)NC(=O)[C@@H](NC(=O)[C@@H](NC(=O)[C@H](CO)NC(=O)[C@@H](NC(=O)[C@H](CC(C)C)NC(=O)[C@@H](N)CS)[C@@H](C)O)[C@@H](C)O)C(C)C)C(=O)N[C@@H](CCSC)C(=O)O`, the Kd (indicated HLA alleles [1]; EGFR T790M, HLA A01.01) was 8.28 µM, the Kd (indicated HLA alleles [1]; EGFR_T790M, HLA A02.01) was 0.537 µM and the “Stability (1/2 hr)” value (indicated HLA alleles [2]; EGFR T790M, HLA A01.01) was 0 h. For the same molecule, the “Stability (1/2 hr)” value (indicated HLA alleles [2]; EGFR_T790M, HLA A02.01) was 0 h.

With `CC(C)C[C@H](NC(=O)[C@@H]1CCCN1C(=O)[C@H](CCC(N)=O)NC(=O)[C@H](CC(C)C)NC(=O)[C@H](C)NC(=O)[C@H](CC(C)C)NC(=O)[C@H](Cc1c[nH]cn1)NC(=O)[C@@H]1CCCN1C(=O)[C@@H](N)CCC(=O)O)C(=O)O` the “Observed MHC stability” value (indicated HLA alleles [3]; Allele B07:02) was 7.2 h, the “Observed MHC stability” value (indicated HLA alleles [3]; Allele B08:01) was 0 h and the Kd (indicated HLA alleles [4]) was 0.017 µM.

With `CC[C@H](C)[C@H](N)C(=O)N[C@@H](CCSC)C(=O)N[C@@H](CCC(N)=O)C(=O)N[C@@H](CC(C)C)C(=O)N[C@@H](CCSC)C(=O)N1CCC[C@H]1C(=O)N[C@@H](Cc1ccccc1)C(=O)NCC(=O)N[C@@H](CS)C(=O)N[C@@H](CC(C)C)C(=O)O` the “Stability (1/2 hr)” value (indicated HLA alleles [2]; EGFR_T790M, HLA A02.01) was 0.5156 h, the “Stability (1/2 hr)” value (indicated HLA alleles [2]; EGFR_T790M, HLA A24.02) was 0 h and the “Stability (1/2 hr)” value (indicated HLA alleles [2]; EGFR_T790M, HLA B08.01) was 0 h.

In the case of `CC[C@H](C)[C@H](NC(=O)[C@@H](N)CC(C)C)C(=O)N[C@@H](CCSC)C(=O)N[C@@H](CCC(N)=O)C(=O)N[C@@H](CC(C)C)C(=O)N[C@@H](CCSC)C(=O)N1CCC[C@H]1C(=O)N[C@@H](Cc1ccccc1)C(=O)NCC(=O)N[C@@H](CS)C(=O)O`, the Kd (indicated HLA alleles [1]; EGFR_T790M, HLA A02.01) is reported as 0.132 µM and the “Stability (1/2 hr)” value (indicated HLA alleles [2]; EGFR_T790M, HLA A02.01) is reported as 0.3813 h.

With `CSCC[C@H](N)C(=O)N[C@@H](C)C(=O)N[C@@H](CC(N)=O)C(=O)NCC(=O)N[C@@H](CO)C(=O)N[C@@H](CC(C)C)C(=O)N[C@@H](CC(C)C)C(=O)N[C@@H](CC(N)=O)C(=O)N[C@@H](Cc1ccc(O)cc1)C(=O)N[C@@H](CC(C)C)C(=O)O` the “Stability (1/2 hr)” value (indicated HLA alleles [5]; BTK_C481S, HLA A02.01) was 0 h, the “Stability (1/2 hr)” value (indicated HLA alleles [5]; BTK_C481S, HLA B07.02) was 0 h and the “Stability (1/2 hr)” value (indicated HLA alleles [5]; BTK_C481S, HLA B08.01) was 0 h.

For `CSCC[C@H](NC(=O)[C@H](CC(C)C)NC(=O)[C@H](CCC(N)=O)NC(=O)[C@@H](N)CCSC)C(=O)N1CCC[C@H]1C(=O)N[C@@H](Cc1ccccc1)C(=O)NCC(=O)N[C@@H](CS)C(=O)N[C@@H](CC(C)C)C(=O)O`, the “Stability (1/2 hr)” value (indicated HLA alleles [2]; EGFR_T790M, HLA A02.01) was 0.3683 h, the “Stability (1/2 hr)” value (indicated HLA alleles [2]; EGFR_T790M, HLA B07.02) was 0 h and the “Stability (1/2 hr)” value (indicated HLA alleles [2]; EGFR_T790M, HLA B08.01) was 0 h.

For `CSCC[C@H](NC(=O)[C@H](CC(C)C)NC(=O)[C@H](CCC(N)=O)NC(=O)[C@@H](N)CCSC)C(=O)N1CCC[C@H]1C(=O)N[C@@H](Cc1ccccc1)C(=O)NCC(=O)N[C@@H](CS)C(=O)N[C@@H](CC(C)C)C(=O)N[C@@H](CC(C)C)C(=O)O`, the “Stability (1/2 hr)” value (indicated HLA alleles [2]; EGFR_T790M, HLA A02.01) was 0.3811 h, the “Stability (1/2 hr)” value (indicated HLA alleles [2]; EGFR_T790M, HLA A24.02) was 0 h and the “Stability (1/2 hr)” value (indicated HLA alleles [2]; EGFR_T790M, HLA B08.01) was 0 h.

For `CC[C@H](C)[C@H](NC(=O)[C@H](CC(C)C)NC(=O)[C@@H](N)CCC(N)=O)C(=O)N[C@@H](CCSC)C(=O)N[C@@H](CCC(N)=O)C(=O)N[C@@H](CC(C)C)C(=O)N[C@@H](CCSC)C(=O)N1CCC[C@H]1C(=O)N[C@@H](Cc1ccccc1)C(=O)O`, the “Stability (1/2 hr)” value (indicated HLA alleles [2]; EGFR_T790M, HLA A02.01) was 0.3407 h, the “Stability (1/2 hr)” value (indicated HLA alleles [2]; EGFR_T790M, HLA A24.02) was 0.3687 h and the “Stability (1/2 hr)” value (indicated HLA alleles [2]; EGFR_T790M, HLA B08.01) was 0 h.

With `CC[C@H](C)[C@H](NC(=O)[C@H](CC(C)C)NC(=O)[C@H](CCC(N)=O)NC(=O)[C@@H](N)C(C)C)C(=O)N[C@@H](CCSC)C(=O)N[C@@H](CCC(N)=O)C(=O)N[C@@H](CC(C)C)C(=O)N[C@@H](CCSC)C(=O)N1CCC[C@H]1C(=O)N[C@@H](Cc1ccccc1)C(=O)O` the “Stability (1/2 hr)” value (indicated HLA alleles [2]; EGFR_T790M, HLA A02.01) was 0 h, the “Stability (1/2 hr)” value (indicated HLA alleles [2]; EGFR_T790M, HLA A24.02) was 0 h and the “Stability (1/2 hr)” value (indicated HLA alleles [2]; EGFR_T790M, HLA B08.01) was 0 h.

In the case of `CC[C@H](C)[C@H](NC(=O)[C@H](CCCCN)NC(=O)[C@H](CO)NC(=O)[C@H](CCC(=O)O)NC(=O)[C@H](C)NC(=O)[C@H](CCCCN)NC(=O)[C@H](CC(C)C)NC(=O)[C@H](Cc1ccccc1)NC(=O)[C@H](CCSC)NC(=O)[C@@H](N)Cc1ccc(O)cc1)C(=O)O`, the “Experiment 1 half-life” value (HLA-A02:01) is reported as 36 min, the “Experiment 2 half-life” value (HLA-A02:01) is reported as 36 min and the Average half-life (HLA-A02:01; average of experiments 1 and 2) is reported as 36 min. The “Experiment 1 half-life” value (HLA-B08:01) was 24 min, the “Experiment 2 half-life” value (HLA-B08:01) was 30 min and the Average half-life (HLA-B08:01; average of experiments 1 and 2) was 24 min. For the same molecule, the “Observed MHC stability” value (indicated HLA alleles [3]; Allele A02.01) was 0.6 h, the “Observed MHC stability” value (indicated HLA alleles [3]; Allele A24:02) was 1.2 h and the “Observed MHC stability” value (indicated HLA alleles [3]; Allele B08:01) was 0.4 h.

For AIQPVLWTT, the “Observed MHC stability” value (indicated HLA alleles [3]; Allele A02.01) was 1.5 h and the Kd (indicated HLA alleles [6]) was 0.008 µM.

For ALQPLQPHA, the “Observed MHC stability” value (indicated HLA alleles [3]; Allele A02.01) was 1.5 h and the Kd (indicated HLA alleles [6]) was 0.604 µM.

For EYMANGSLL, the “Stability (1/2 hr)” value (indicated HLA alleles [5]; BTK, C481S, HLA A24.02) was 5.716 h and the Kd (indicated HLA alleles [7]) was 0.00496 µM.

In the case of FLKAESKIMFATLQRS [Peptide L11f], the solubility ([8]; 0.4 mg/mL in […] SS, without DMSO, after 6 hours) is reported as “soluble”, the “solubility in 5 mM SS” value ([8]; 5 mM SS (higher SS concentration) in D5W) is reported as “not soluble” and the “Solubility in […] SS in D5W w/o DMSO” value ([8]; no DMSO, no polyICLC) is reported as “Yes”. The “Solubility in […] SS in D5W w/ 4% DMSO” value ([8]; 4% DMSO, no polyICLC) was “Yes”, the “solubility in low SS” value ([8]; lower SS concentration ([…] SS/D5W)) was “soluble” and the “Solubility in Poly ICLC + […] SS in D5W w/o DMSO” value ([8]; with polyICLC, no DMSO) was “Yes”.

In the case of FLKAESKIMFATLQRSSLWCL [Peptide 11], the “Solubility in Poly ICLC + […] SS in D5W w/ 4% DMSO” value ([8]; with polyICLC, 4% DMSO) is reported as “No”.

In the case of GPPARVPAVPFDLHFCRSSIMKPKRD [Peptide 8], the “Solubility in 0.5 mM SS in D5W w/ 4% DMSO” value ([8]; 0.5 mM sodium succinate in D5W, 4% DMSO, no polyICLC) is reported as “Yes”, the “Solubility in […] SS in D5W w/o DMSO” value ([8]; no DMSO, no polyICLC) is reported as “Yes” and the “Solubility in […] SS in D5W w/ 4% DMSO” value ([8]; 4% DMSO, no polyICLC) is reported as “Yes”. For the same molecule, the “Solubility in Poly ICLC + 0.5 mM SS in D5W w/ 4% DMSO” value ([8]; with polyICLC, 0.5 mM SS in D5W, 4% DMSO) was “Yes”, the “Solubility in Poly ICLC + 5 mM SS in D5W w/o DMSO” value ([8]; with polyICLC, 5 mM SS in D5W, no DMSO) was “Yes” and the “Solubility in Poly ICLC + […] SS in D5W w/ 4% DMSO” value ([8]; with polyICLC, 4% DMSO) was “Yes”. The “Solubility in Poly ICLC + […] SS in D5W w/o DMSO” value ([8]; with polyICLC, no DMSO) was “Yes”.

— patent publication US20210275657A1, “NEOANTIGENS AND USES THEREOF” (BioNTech US Inc., priority 2018, published 2021)
